According to patent US7514452B2, “2-furancarboxylic acid hydrazides and pharmaceutical compositions containing the same” (Dainippon Pharmaceutical Co., Ltd, priority 2002, dated 2009):

What was measured:
glucagon receptor [1] = molecular target: glucagon receptor (Mus musculus, UniProt Q61606); assay: Experiment for glucagon binding inhibition, mouse hepatic membrane (125I-glucagon); conditions: male ddY mouse hepatic membrane, 125I-glucagon 50 pM, 25° C. for 30 minutes; read-out: Glucagon binding inhibitory activity IC50 (nM) Mouse
Sequence of glucagon receptor (Mus musculus, UniProt Q61606) (Q61606 27-485): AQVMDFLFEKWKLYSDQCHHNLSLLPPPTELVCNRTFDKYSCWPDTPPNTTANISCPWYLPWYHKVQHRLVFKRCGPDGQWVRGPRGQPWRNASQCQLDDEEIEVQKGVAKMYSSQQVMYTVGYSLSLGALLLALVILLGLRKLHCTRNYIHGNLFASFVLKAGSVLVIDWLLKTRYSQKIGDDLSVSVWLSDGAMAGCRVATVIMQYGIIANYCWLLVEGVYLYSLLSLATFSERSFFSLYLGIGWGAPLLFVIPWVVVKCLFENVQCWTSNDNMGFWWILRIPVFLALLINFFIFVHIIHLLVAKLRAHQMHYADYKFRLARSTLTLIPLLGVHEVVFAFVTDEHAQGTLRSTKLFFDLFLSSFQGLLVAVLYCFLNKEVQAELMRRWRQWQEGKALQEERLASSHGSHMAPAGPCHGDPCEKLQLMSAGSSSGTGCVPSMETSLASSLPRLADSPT
Method: (§1) The preparation of membrane from mouse and rat livers was carried out according to the method described in Bioorg. Med. Chem. Lett. 1992, 12, 915-918 in this experiment and ^125I-glucagon binding activity was measured with these membranes as glucagon receptor's samples. Livers were removed from male SD rats (about 250 g body weight per rat) and male ddY mice (about 30 g body weight per mouse). […] The homogenate was centrifuged for 15 minutes at 30,000×g. […] The precipitaion thus obtained was used as a hepatic membrane sample. […] The mixture was incubated at 25° C. for 30 minutes. […] The filter was washed 3 times with 50 mM Tris-HCl buffer (pH 7.2), and the radioactivity of the filter was measured by a γ counter (ARC-360, Aloka Co., Ltd.). […] Each experiment was carried out in duplicate. […] The concentration at 50% inhibition of binding (IC50) was calculated using a pseudo Hill plot.

glucagon receptor [2] = molecular target: glucagon receptor (Rattus norvegicus, UniProt P30082); assay: Experiment for glucagon binding inhibition, rat hepatic membrane (125I-glucagon); conditions: male SD rat hepatic membrane, 125I-glucagon 50 pM, 25° C. for 30 minutes; read-out: Glucagon binding inhibitory activity IC50 (nM) Rat
Sequence of glucagon receptor (Rattus norvegicus, UniProt P30082) (P30082 27-485): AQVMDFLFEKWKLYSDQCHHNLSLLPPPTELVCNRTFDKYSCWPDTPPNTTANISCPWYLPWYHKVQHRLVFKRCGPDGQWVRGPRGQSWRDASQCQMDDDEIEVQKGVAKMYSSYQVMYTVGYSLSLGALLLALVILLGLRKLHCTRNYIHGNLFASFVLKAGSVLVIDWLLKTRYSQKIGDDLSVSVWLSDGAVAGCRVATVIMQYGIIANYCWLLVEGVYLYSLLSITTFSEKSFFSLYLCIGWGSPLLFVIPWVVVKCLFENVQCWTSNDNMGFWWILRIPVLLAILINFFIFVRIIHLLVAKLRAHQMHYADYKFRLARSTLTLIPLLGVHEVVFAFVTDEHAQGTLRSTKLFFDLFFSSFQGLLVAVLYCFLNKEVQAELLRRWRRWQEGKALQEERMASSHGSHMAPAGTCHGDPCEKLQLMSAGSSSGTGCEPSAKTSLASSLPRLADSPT
Method: as §1

Row | IC50 (glucagon receptor [1]) | IC50 (glucagon receptor [2]) | melting point | SMILES
1 | 50 nM | 49 nM | 96 to 99 °C | CCCCCOc1cccc(-c2ccoc2C(=O)NNC(=O)c2ccc(O)c([N+](=O)[O-])c2)c1 [Example 182, 3-(3-Pentyloxyphenyl)-2-furancarboxylic acid 2-(4-hydroxy-3-nitrobenzoyl)hydrazide]
2 | 37 nM | 60 nM | 135 to 139 °C | O=C(NNC(=O)c1occc1-c1ccc2ccccc2c1)c1ccc(O)c([N+](=O)[O-])c1 [Example 217]
3 | 290 nM | 380 nM | 103 to 106 °C | CCCCCOc1ccc(-c2ccoc2C(=O)NNC(=O)c2ccc(O)c(F)c2)cc1 [Example 243]
4 | 180 nM | 300 nM | 120 to 123 °C | Cc1ccc(-c2ccoc2C(=O)NNC(=O)c2ccc(O)c(C(F)(F)F)c2)cc1 [Example 240]
5 | 6.1 nM | 5.2 nM | 157 to 162 °C | Cc1ccc(COc2cccc(-c3ccoc3C(=O)NNC(=O)c3ccc(O)c([N+](=O)[O-])c3)c2)cc1C [Example 129, 3-[3-(3,4-Dimethylbenzyloxy)phenyl]-2-furancarboxylic acid 2-(4-hydroxy-3-nitrobenzoyl)hydrazide]
6 | 64 nM | 29 nM | 163 to 164 °C | O=C(NNC(=O)c1occc1-c1ccc(OCc2ccccc2)cc1)c1ccc(O)c([N+](=O)[O-])c1 [Example 245]
7 | 38 nM | 27 nM | 180 to 182 °C | Cc1ccc(-c2ccoc2C(=O)NNC(=O)c2ccc(O)c([N+](=O)[O-])c2)cc1 [Example 146, 3-(4-Methylphenyl)-2-furancarboxylic acid 2-(4-hydroxy-3-nitrobenzoyl)hydrazide]
8 | 80 nM | 35 nM | 177 to 179 °C | Cc1ccccc1COc1ccc(-c2ccoc2C(=O)NNC(=O)c2ccc(O)c([N+](=O)[O-])c2)cc1 [Example 213]
9 | 9.5 nM | 8 nM | 129 to 131 °C | O=C(NNC(=O)c1occc1-c1ccc2[nH]ccc2c1)c1ccc(O)c([N+](=O)[O-])c1 [Example 207]
10 | 350 nM | 330 nM | 117 to 121 °C | O=C(NNC(=O)c1occc1-c1ccccc1)c1ccc(O)c(C(F)(F)F)c1 [Example 193, 3-phenyl-2-furancarboxylic acid 2-(4-hydroxy-3-trifluoromethylbenzoyl)hydrazide]
11 | 42 nM | 25 nM | 174 to 176 °C | O=C(NNC(=O)c1oc(Br)cc1-c1ccccc1)c1ccc(O)c([N+](=O)[O-])c1 [Example 222, 5-bromo-3-phenyl-2-furancarboxylic acid 2-(4-hydroxy-3-nitrobenzoyl)hydrazide]
12 | 3.4 nM | 2.9 nM | 174 to 176 °C | CCCc1ccc(-c2ccoc2C(=O)NNC(=O)c2ccc(O)c([N+](=O)[O-])c2)cc1 [Example 160, 3-(4-Propylphenyl)-2-furancarboxylic acid 2-(4-hydroxy-3-nitrobenzoyl)hydrazide]
13 | 7.1 nM | 5.9 nM | 144 to 146 °C | CCCCCCc1ccc(-c2ccoc2C(=O)NNC(=O)c2ccc(O)c([N+](=O)[O-])c2)cc1 [Example 158, 3-(4-Hexylphenyl)-2-furancarboxylic acid 2-(4-hydroxy-3-nitrobenzoyl)hydrazide]
14 | 75 nM | 99 nM | 126 to 131 °C | C=CCOc1cccc(-c2ccoc2C(=O)NNC(=O)c2ccc(O)c([N+](=O)[O-])c2)c1 [Example 199, 3-[3-(2-Allyloxy)phenyl]-2-furancarboxylic acid 2-(4-hydroxy-3-nitrobenzoyl)hydrazide]
15 | 56 nM | 95 nM | 143 to 147 °C | O=C(NNC(=O)c1occc1-c1cccc(-c2ccccc2)c1)c1ccc(O)c([N+](=O)[O-])c1 [Example 218]
16 | 60 nM | 31 nM | 156 to 157 °C | CCCCCOc1ccc(-c2ccoc2C(=O)NNC(=O)c2ccc(O)c([N+](=O)[O-])c2)cc1 [Example 159, 3-(4-Pentyloxyphenyl)-2-furancarboxylic acid 2-(4-hydroxy-3-nitrobenzoyl)hydrazide]

Row | IC50 (glucagon receptor [1]) | IC50 (glucagon receptor [2]) | melting point | SMILES
17 | 48 nM | 27 nM | 100 to 101 °C | Cc1cccc(C)c1COc1cccc(-c2ccoc2C(=O)NNC(=O)c2ccc(O)c([N+](=O)[O-])c2)c1 [Example 224]
18 | 15 nM | 14 nM | 159 to 161 °C | Cc1ccc(COc2cccc(-c3ccoc3C(=O)NNC(=O)c3ccc(O)c([N+](=O)[O-])c3)c2)cc1 [Example 126, 3-[3-(4-Methylbenzyloxy)phenyl]-2-furancarboxylic acid 2-(4-hydroxy-3-nitrobenzoyl)hydrazide]
19 | 7.9 nM | 3.9 nM | 154 to 157 °C | O=C(NNC(=O)c1occc1-c1ccc(Cc2ccccc2)cc1)c1ccc(O)c([N+](=O)[O-])c1 [Example 210, 3-(4-benzylphenyl)-2-furancarboxylic acid 2-(4-hydroxy-3-nitrobenzoyl)hydrazide]
20 | 25 nM | 8.5 nM | 184 to 185 °C | Cc1ccc(COc2ccc(-c3ccoc3C(=O)NNC(=O)c3ccc(O)c([N+](=O)[O-])c3)cc2)cc1 [Example 211]
21 | 68 nM | 11 nM | 97 to 99 °C | O=C(NNC(=O)c1occc1-c1cccc(Cc2ccccc2Cl)c1)c1ccc(O)c([N+](=O)[O-])c1 [Example 225]
22 | 56 nM | 89 nM | 154 to 156 °C | O=C(NNC(=O)c1occc1-c1ccccc1)c1ccc(O)c([N+](=O)[O-])c1 [Example 143, 3-Phenyl-2-furancarboxylic acid 2-(4-hydroxy-3-nitrobenzoyl)hydrazide]
23 | 31 nM | 21 nM | 87 to 89 °C | CCOc1ccccc1Cc1cccc(-c2ccoc2C(=O)NNC(=O)c2ccc(O)c([N+](=O)[O-])c2)c1 [Example 226]
24 | 43 nM | 28 nM | 203 to 204 °C | Cc1cc(C)c(C)c(COc2ccc(-c3ccoc3C(=O)NNC(=O)c3ccc(O)c([N+](=O)[O-])c3)cc2)c1C [Example 113, 3-[4-(2,3,5,6-Tetramethylbenzyloxy)phenyl]-2-furancarboxylic acid 2-(4-hydroxy-3-nitrobenzoyl)hydrazide]
25 | 250 nM | 120 nM | 182 to 183 °C | CC(C)c1cccc(-c2ccoc2C(=O)NNC(=O)c2ccc(O)c([N+](=O)[O-])c2)c1 [Example 152, 3-(3-Isopropylphenyl)-2-furancarboxylic acid 2-(4-hydroxy-3-nitrobenzoyl)hydrazide]
26 | 140 nM | 100 nM | 155 to 156 °C | CCCCOc1ccc(-c2ccoc2C(=O)NNC(=O)c2ccc(O)c([N+](=O)[O-])c2)cc1 [Example 161]
27 | 58 nM | 28 nM | 135 to 138 °C | Cc1ccccc1Cc1cccc(-c2ccoc2C(=O)NNC(=O)c2ccc(O)c([N+](=O)[O-])c2)c1 [Example 229]
28 | 35 nM | 20 nM | 90 to 94 °C | O=C(NNC(=O)c1occc1-c1cccc(OCCc2ccccc2)c1)c1ccc(O)c([N+](=O)[O-])c1 [Example 209, 3-(3-phenethyloxyphenyl)-2-furancarboxylic acid 2-(4-hydroxy-3-nitrobenzoyl)hydrazide]
29 | 8.6 nM | 9.6 nM | 163 to 165 °C | CCCCCc1ccc(-c2ccoc2C(=O)NNC(=O)c2ccc(O)c([N+](=O)[O-])c2)cc1 [Example 162, 3-(4-Pentylphenyl)-2-furancarboxylic acid 2-(4-hydroxy-3-nitrobenzoyl)hydrazide]
30 | 63 nM | 40 nM | 84 to 85 °C | CC(C)=CCOc1cccc(-c2ccoc2C(=O)NNC(=O)c2ccc(O)c([N+](=O)[O-])c2)c1 [Example 196, 3-[3-(3-Methyl-2-butenyloxy)phenyl]-2-furancarboxylic acid 2-(4-hydroxy-3-nitrobenzoyl)hydrazide]
31 | 9.3 nM | 5.5 nM | 190 to 193 °C | CCCCc1ccc(-c2ccoc2C(=O)NNC(=O)c2ccc(O)c([N+](=O)[O-])c2)cc1 [Example 142, 3-(4-butylphenyl)-2-furancarboxylic acid 2-(4-hydroxy-3-nitrobenzoyl)hydrazide]
32 | 65 nM | 33 nM | 144 to 145 °C | Cc1cccc(COc2cccc(-c3ccoc3C(=O)NNC(=O)c3ccc(O)c([N+](=O)[O-])c3)c2)c1 [Example 123, 3-[3-(3-Methylbenzyloxy)phenyl]-2-furancarboxylic acid 2-(4-hydroxy-3-nitrobenzoyl)hydrazide]

Row | SMILES | IC50 (glucagon receptor [1]) | IC50 (glucagon receptor [2]) | melting point
33 | CC(C)COc1cccc(-c2ccoc2C(=O)NNC(=O)c2ccc(O)c([N+](=O)[O-])c2)c1 [Example 183, 3-(3-Isobutoxyphenyl)-2-furancarboxylic acid 2-(4-hydroxy-3-nitrobenzoyl)hydrazide] | 34 nM | 51 nM | 98 to 100 °C
